Assays:
[1] = test system: encephalitogenic CD4+ MBP-specific rat TCL (L1402); experiment: TNF/LT production by an encephalitogenic MBP-specific rat T-cell line, cytotoxicity bioassay; type: cell-based
Description: To assess the ability of rolipram alone or in various combinations as described to modify autoimmune processes, we investigated its influence on TNF production in vitro by MBP-specific T-cell lines from MS patients and Lewis rats. MBP is a major candidate antigen in MS, and T-cell-mediated immunity is of crucial importance in its pathogenesis. Similar to EAE, MBP-specific T-cells in humans are often cytotoxic, of Th1 type secreting interferon (IFN)-gamma and TNF/LT, and recognize epitopes that are also encephalitogenic in EAE.
Similar results were found using an encephalitogenic CD4+ MBP-specific rat TCL (L1402). […] Previous investigations had shown that inhibition of cAMP PDE by rolipram is stereospecific.
TNF and LT may both be produced by autoactive T-cells. CD4+ cells have been reported to be the major source of TFN in autoimmune insulitis of NOD mice. The cytokine bioassay for TNF/LT detection employed here is sensitive to TNF and LT, but is 200 times more sensitive to the former.

[2] = test system: mouse and rat forebrain tissue; conditions: in vitro and in vivo binding with 3H-rolipram; previous investigations; cited from earlier work
[3] = test system: EAE after adoptive cell transfer (tEAE); experiment: EAE after adoptive cell transfer (tEAE) in Lewis rats; type: in vivo; conditions: n = 5
Protocol: (§1) The results of our in vivo findings prompted us to perform treatment experiments in EAE after active immunization (aEAE) and adoptive cell transfer (tEAE) in Lewis rats. […] In clinically manifest EAE, treatment was started within 6 hours of the onset of symptoms. […] In tEAE similar effects were observed. […] Treatment after onset of symptoms also lead to a marked reduction in maximum severity (treated group: MMS 0.7 ± 0.10, n = 5; vehicle treated matched controls 2.45 ± 0.56, n = 5, p 0.01).

[4] = test system: Experimental Allergic Encephalomyelitis (EAE); experiment: Prevention of EAE by Rolipram treatment in marmosets immunized with human brain white matter homogenate; type: in vivo, Callithrix jacchus (common marmoset); conditions: treatment removed on day 60 following immunization; two marmosets
[5] = test system: Experimental Allergic Encephalomyelitis (EAE); experiment: Treatment of active (chronic) EAE with Rolipram in a marmoset; type: in vivo, Callithrix jacchus (common marmoset); conditions: escalating doses of Rolipram in DMSO
[6] = test system: EAE after active immunization (aEAE); experiment: EAE after active immunization (aEAE) in Lewis rats; type: in vivo; conditions: drug given from the day of active immunization until day 11
Protocol: as §1
In order to distinguish further between a long-term prophylactic or a temporary suppressive effect, animals received the drug from the day of active immunization until day 11.
Histological analysis was performed on selected animals with aEAE. […] In a study on EAE, induced by myelin oligodendrocyte glycoprotein (MOG)-specific T-cells, the lack of neurological signs was ascribed to a decrease of macrophages and parenchymal inflammation, whereas perivascular inflammation and the synthesis of TNF, IFN-gamma, and interleukin-6 was clearly present. In our system, however, the timely onset of paralysis and the morphologically similar appearance of infiltrates in some of the treated animals argues against such a phenomenon. […]

COc1ccc(C2CNC(=O)C2)cc1OC1CCCC1 (single isomer, unassigned; (+)) [(+)-rolipram]
EC50 ([1]; inhibition of TNF/LT production, given alone): 280 nM

COc1ccc(C2CNC(=O)C2)cc1OC1CCCC1 (single isomer, unassigned; (-)) [(-)-rolipram]
times higher affinity than the (+)-enantiomers [2]: 15-30 times | times more effective than the (+)-enantiomer (inhibition of TNF/LT production) [1]: 55 times

COc1ccc(C2CNC(=O)C2)cc1OC1CCCC1 (stereo not drawn) [Rolipram, 4-[(3-cyclopentyloxy)-4-methoxyphenyl]-2-pyrrolidinone]
mean maximum score (MMN) ([3]; prophylactic treatment, p < 0.01 versus controls): 0.3 ± 0.11 | MMS (maximum severity) ([3]; treatment after onset of symptoms): 0.7 ± 0.10 | day on which clinical signs of EAE began following withdrawal of Rolipram [4]: 17 days | day of MRI improvement following initiating Rolipram treatment [5]: 14 days | day of marked improvement after initiating treatment [5]: 10 days | delay of aEAE [6]: 3.5 days

Reference: patent publication EP1380291A1, “PDE IV inhibitors for treating multiple sclerosis” (Schering Aktiengesellschaft, priority 1994, dated 1995)
